# Source: US10787462B2, “Heterocyclic compound” (TAKEDA PHARMACEUTICAL COMPANY LIMITED, priority 2015, dated 2020)
# Target: T1, human RIPK1 (1-375) (Homo sapiens, UniProt Q13546)
# T1 construct: human RIPK1 (1-375) gene; GST; made in house; host or cells: Sf-9 insect cells
# T1 sequence (Q13546 1-375): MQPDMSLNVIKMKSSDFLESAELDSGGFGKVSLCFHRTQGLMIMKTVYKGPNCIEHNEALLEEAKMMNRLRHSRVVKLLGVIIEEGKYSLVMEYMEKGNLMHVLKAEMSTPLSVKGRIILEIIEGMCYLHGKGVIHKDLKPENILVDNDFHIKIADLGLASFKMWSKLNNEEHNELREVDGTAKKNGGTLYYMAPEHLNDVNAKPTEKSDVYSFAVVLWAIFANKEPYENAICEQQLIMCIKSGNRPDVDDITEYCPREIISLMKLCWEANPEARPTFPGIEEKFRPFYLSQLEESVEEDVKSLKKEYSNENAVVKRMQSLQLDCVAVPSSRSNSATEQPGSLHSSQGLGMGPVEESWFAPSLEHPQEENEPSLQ
# Experiment: Human RIPK1 enzyme inhibitory effect (ADP-Glo Kinase Assay)
# Type: biochemical
# Details: 10 μM test compound; well without enzyme = 100% inhibition; 10 µM
# Method in brief: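 ADP-Glo luminescence read-out of ADP formed over 120 min at room temperature after adding 0.6 mM ATP solution (stock concentration). Compound and Sf-9-expressed, GST-purified RIPK1 (1-375) were first incubated together for 20 min in HEPES pH 7.5 buffer with MgCl2, Tween-20 and DTT.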
row,human RIPK1 enzyme inhibitory effect at 10 μM (% inhibition),Structure (SMILES)
1,91%,"CN1C(=O)C(N2CCc3c(nn(Cc4ccccc4)c3Cl)C2=O)CCc2cnccc21 (stereo not shown) [Example 100, 3-(2-benzyl-3-chloro-7-oxo-2,4,5,7-tetrahydro-6H-pyrazolo[3,4-c]pyridin-6-yl)-1-methyl-1,3,4,5-tetrahydro-2H-pyrido[4,3-b]azepin-2-one]"
2,100%,"CN1C(=O)C(N2CCc3c(nn(Cc4ccccc4)c3Cl)C2=O)CCc2c1cnn2C (stereo not shown) [Example 127, 6-(2-benzyl-3-chloro-7-oxo-2,4,5,7-tetrahydro-6H-pyrazolo[3,4-c]pyridin-6-yl)-1,4-dimethyl-4,6,7,8-tetrahydropyrazolo[4,3-b]azepin-5(1H)-one]"

# Same assay, conditions: read-out: human RIPK1 enzyme inhibitory effect at 10 μM (% inhibition), 10 μM test compound; well without enzyme = 100% inhibition
row,inhibition at 10 µM,Structure (SMILES)
1,98%,"CN1C(=O)[C@@H](N2CCc3c(nn(Cc4ccccc4)c3OC(F)F)C2=O)COc2cc(C#N)ccc21 [Example 124, (32)-3-(2-benzyl-3-(difluoromethoxy)-7-oxo-2,4,5,7-tetrahydro-6H-pyrazolo[3,4-c]pyridin-6-yl)-5-methyl-4-oxo-2,3,4,5-tetrahydro-1,5-benzoxazepine-8-carbonitrile]"
2,101%,"CN1C(=O)[C@@H](N2CCc3c(nn(Cc4ccccc4)c3Cl)C2=O)COc2cc(Br)ccc21 [Example 58, (3S)-3-(2-benzyl-3-chloro-7-oxo-2,4,5,7-tetrahydro-6H-pyrazolo[3,4-c]pyridin-6-yl)-8-bromo-5-methyl-2,3-dihydro-1,5-benzoxazepin-4(5H)-one]"
3,99%,"CN1C(=O)[C@@H](N2CCc3cn(Cc4ccccc4)nc3C2=O)COc2cc(C#N)ccc21 [Example 13, (3S)-3-(2-benzyl-7-oxo-2,4,5,7-tetrahydro-6H-pyrazolo[3,4-c]pyridin-6-yl)-5-methyl-4-oxo-2,3,4,5-tetrahydro-1,5-benzoxazepine-8-carbonitrile]"
4,101%,"CNC(=O)c1ccc2c(c1)OC[C@H](N1CCc3c(nn(Cc4ccccc4F)c3C)C1=O)C(=O)N2C [Example 115, (3S)-3-(2-(2-fluorobenzyl)-3-methyl-7-oxo-2,4,5,7-tetrahydro-6H-pyrazolo[3,4-c]pyridin-6-yl)-N,5-dimethyl-4-oxo-2,3,4,5-tetrahydro-1,5-benzoxazepine-8-carboxamide]"
5,101%,"CN1C(=O)[C@@H](N2CCc3c(nn(Cc4ccccc4)c3Cl)C2=O)COc2cc(C(=O)NCCOCCOCCOCCNC(=O)c3ccc4c(c3)OC[C@H](N3CCc5c(nn(Cc6ccccc6)c5Cl)C3=O)C(=O)N4C)ccc21 [Example 174, (3S)-3-(2-benzyl-3-chloro-7-oxo-2,4,5,7-tetrahydro-6H-pyrazolo[3,4-c]pyridin-6-yl)-N-(13-((3S)-3-(2-benzyl-3-chloro-7-oxo-2,4,5,7-tetrahydro-6H-pyrazolo[3,4-c]pyridin-6-yl)-5-methyl-4-oxo-2,3,4,5-tetrahydro-1,5-benzoxazepin-8-yl)-13-oxo-3,6,9-trioxa-12-azatridec-1-yl)-5-methyl-4-oxo-2,3,4,5-tetrahydro-1,5-benzoxazepine-8-carboxamide]"
6,100%,"CN(C)C(=O)c1ccc2c(c1)OC[C@H](N1CCc3c(nn(Cc4ccccc4)c3Cl)C1=O)C(=O)N2C [Example 87, (3S)-3-(2-benzyl-3-chloro-7-oxo-2,4,5,7-tetrahydro-6H-pyrazolo[3,4-c]pyridin-6-yl)-N,N,5-trimethyl-4-oxo-2,3,4,5-tetrahydro-1,5-benzoxazepine-8-carboxamide]"
7,100%,"CN1C(=O)[C@@H](N2CCc3c(nn(Cc4ccccc4)c3C#N)C2=O)COc2ccccc21 [Example 12, 2-benzyl-6-((3S)-5-methyl-4-oxo-2,3,4,5-tetrahydro-1,5-benzoxazepin-3-yl)-7-oxo-4,5,6,7-tetrahydro-2H-pyrazolo[3,4-c]pyridine-3-carbonitrile]"
8,97%,"CN1C(=O)[C@@H](N2CCc3c(nn(Cc4ccccc4)c3Cl)C2=O)COc2cc(C3COC3)ccc21 [Example 59, (3S)-3-(2-benzyl-3-chloro-7-oxo-2,4,5,7-tetrahydro-6H-pyrazolo[3,4-c]pyridin-6-yl)-5-methyl-8-(oxetan-3-yl)-2,3-dihydro-1,5-benzoxazepin-4(5H)-one]"
9,101%,"CN1C(=O)[C@@H](N2CCc3cn(Cc4ccccc4F)nc3C2=O)COc2ccc(Br)cc21 [Example 138, (3S)-7-bromo-3-(2-(2-fluorobenzyl)-7-oxo-2,4,5,7-tetrahydro-6H-pyrazolo[3,4-c]pyridin-6-yl)-5-methyl-2,3-dihydro-1,5-benzoxazepin-4(5H)-one]"
10,92%,"CN1C(=O)[C@@H](N2CCc3nn(Cc4ccccc4)cc3C2=O)COc2ccccc21 [Example 70, (3S)-3-(2-benzyl-4-oxo-2,4,6,7-tetrahydro-5H-pyrazolo[4,3-c]pyridin-5-yl)-5-methyl-2,3-dihydro-1,5-benzoxazepin-4(5H)-one]"
11,101%,"CN1C(=O)[C@@H](N2CCc3c(nn(Cc4ccccc4)c3Cl)C2=O)COc2cc(C(=O)NCC(C)(C)O)ccc21 [Example 62, (3S)-3-(2-benzyl-3-chloro-7-oxo-2,4,5,7-tetrahydro-6H-pyrazolo[3,4-c]pyridin-6-yl)-N-(2-hydroxy-2-methylpropyl)-5-methyl-4-oxo-2,3,4,5-tetrahydro-1,5-benzoxazepine-8-carboxamide]"
12,99%,"CN1C(=O)[C@@H](N2CCc3cn(Cc4cnccn4)nc3C2=O)COc2ccccc21 [Example 42, (3S)-5-methyl-3-(7-oxo-2-(pyrazin-2-ylmethyl)-2,4,5,7-tetrahydro-6H-pyrazolo[3,4-c]pyridin-6-yl)-2,3-dihydro-1,5-benzoxazepin-4(5H)-one]"
13,97%,"CN1C(=O)[C@@H](N2CCc3c(nn(Cc4ccccc4)c3Cl)C2=O)COc2ccccc21 [Example 76, (3S)-3-(2-benzyl-3-chloro-7-oxo-2,4,5,7-tetrahydro-6H-pyrazolo[3,4-c]pyridin-6-yl)-5-methyl-2,3-dihydro-1,5-benzoxazepin-4(5H)-one]"
14,99%,"CN1C(=O)[C@@H](N2CCc3cn(Cc4ccc(C#N)cc4F)nc3C2=O)COc2ccccc21 [Example 162, 3-fluoro-4-((6-((3S)-5-methyl-4-oxo-2,3,4,5-tetrahydro-1,5-benzoxazepin-3-yl)-7-oxo-4,5,6,7-tetrahydro-2H-pyrazolo[3,4-c]pyridin-2-yl)methyl)benzonitrile]"
15,99%,"COc1ccc(Cn2cc3c(n2)C(=O)N([C@H]2COc4ccccc4N(C)C2=O)CC3)cc1 [Example 161, (3S)-3-(2-(4-methoxybenzyl)-7-oxo-2,4,5,7-tetrahydro-6H-pyrazolo[3,4-c]pyridin-6-yl)-5-methyl-2,3-dihydro-1,5-benzoxazepin-4(5H)-one]"
16,101%,"CNC(=O)c1ccc2c(c1)CCC(N1CCc3c(nn(Cc4ccccc4)c3Cl)C1=O)C(=O)N2C (stereo not shown) [Example 135, 3-(2-benzyl-3-chloro-7-oxo-2,4,5,7-tetrahydro-6H-pyrazolo[3,4-c]pyridin-6-yl)-N,1-dimethyl-2-oxo-2,3,4,5-tetrahydro-1H-1-benzazepine-7-carboxamide]"
17,93%,"COc1ccc(Cn2c(Cc3ccccc3)nc3c2CCN([C@H]2COc4ccccc4N(C)C2=O)C3=O)cc1 [Example 54, (3S)-3-(2-benzyl-1-(4-methoxybenzyl)-4-oxo-1,4,6,7-tetrahydro-5H-imidazo[4,5-c]pyridin-5-yl)-5-methyl-2,3-dihydro-1,5-benzoxazepin-4(5H)-one]"
